According to patent US9458200B2, “Method for producing intermediates for the production of novel macrocycles that are inhibitors of the proteasomic degradation of p27, such as argyrin and derivatives thereof, and uses of said macrocycles” (Gottfried Wilhelm Leibniz Universität Hannover, priority 2008, dated 2016):
Values after ≈ are worked out from the molar mass of the structure shown. Starred links: 1 amine or outer side, 2 acyl side, 3 side chain; linkers in the order of their positions; H or OH if unused. Non-standard residues stand in square brackets, D forms with d. Residues, ends and D or L forms follow the SMILES beside them. Trp(4-OMe) = COc1cccc2[nH]cc(C[C@H](N)C(=O)O)c12; X1 = O=C(c1csc([C@@H](CO)N[*:1])n1)[*:2]; Dha = C=C(N)C(=O)O; Sar = CNCC(=O)O

Key:
[1] = system: H15GFP-p27 clone (HeLa-cell line; cervix-carcinoma); assay: GFP-fluorescence per FACS of p27-GFP clone H15GFP-p27; type: cell-based; conditions: GFP-fluorescence per FACS after 24 h incubation, 500 ng/ml
From the text: (§1) The following table summarizes the effects of […]-derivatives B and F on two cancer cell lines, H15 (cervix carcinoma) and SW-480 (colon cancer). In order to test the efficacy, a p27-GFP-clone was used. [table]

SW-480 (colon cancer) = assay: MIC (visual), serial dilution, SW-480 cells; type: cell-based; conditions: minimal concentration of a serial dilution exhibiting a visual effect
From the text: as §1

[2] = system: SW-480 (colon cancer cell line); assay: MTT-test, proliferation of SW-480; type: cell-based
Experimental: MTT assays were done as previously described (Sasse, F. et al. Argyrins, immunosuppressive cyclic peptides from myxobacteria. I. Production, isolation, physico-chemical and biological properties. J Antibiot (Tokyo) 55, 543-51 (2002)). TUNEL staining of tissue sections was performed on 10 micrometer sections which were deparafinised and treated as recommended by the manufacturer. (In Situ Cell Death Detection Kit, Fluorescein; ROCHE, Cat #11 684 795 910). Flow cytometric analysis of cultured cells was done using a Becton Dickinson fluorescence cytometer as previously described (Malek, N.P. et al. A mouse knock-in model exposes sequential proteolytic pathways that regulate p27^Kip1 in G1 and S phase. Nature 413, 323-7 (2001)). Analysis of the distribution of cells in the cell cycle and the sub-G1 fraction was done using Cell Quest software. A histone-associated-DNA-fragments ELISA was used to determine the number of apoptotic cells according to manufacturers instructions (Roche #11 774425001).

[3] = target: T1, erythrocyte-derived 20S proteasome, caspase-like activity (Homo sapiens, UniProt P28072+Q99436); assay: 20S-Proteasome-Test (manual), caspase-like substrate; type: biochemical
T1 construct: using erythrocyte-derived 20S proteasome; purchased Biomol International PW8720; host or cells: human erythrocytes
Experimental: (§2) Proteasome assays with purified 20S proteasome were performed as previously described (Lightcap, E. S. et al. Proteasome inhibition measurements: clinical application. Clin Chem 46, 673-83 (2000)) using erythrocyte-derived 20S proteasome (Biomol International,#LP PW8720) and fluorometric substrates Succ-LLVY-AMC, BZ-VGR-AMC and Z-Lle-AMC (Biomol International, LP PW9905) as probes according to the manufacturers instructions. Proteasome extraction from cells and tumor sections was done as previously described (Crawford, L. J. et al. Comparative selectivity and specificity of the proteasome inhibitors BzLLLCOCHO, PS-341, and MG-132. Cancer Res 66, 6379-86 (2006)). Briefly cells (MEF or MCF-7) or tissue sample homogenate (tumor sections) were re-suspended in 1 mL ATP/DTT lysis buffer (10 mmol/L Tris-HCl (pH7.8), 5 mmol/L ATP, 0.5 mmol/L DTT, 5 mmol/L MgCl2), and incubated on ice for 10 minutes, followed by sonication for 15 seconds. The lysates were centrifuged at 400×g for 10 min at 4° C., and the resulting supernatant containing proteasomes was stable at −80° C. with the addition of 20% glycerol for at least 1 month. Protein concentration of the samples was measured using a coomassie protein assay (Pierce, Rockford, Ill.).
(§3) Proteasome assays with purified 20S proteasome were performed as previously described (Lightcap et al., 2000) using erythrocyte-derived 20S proteasome (Biomol International,#LP PW8720) and fluorometric substrates Succ-LLVY-AMC, BZ-VGR-AMC and Z-Lle-AMC (Biomol International, LP PW9905). Proteasome extraction from cells and tumor sections was done as previously described (Crawford et al., 2006). For proteasome extraction from whole blood, frozen whole blood cell pellets were thawed and lysed in 2-3 pellet volumes cold lysis buffer (5 mM EDTA, pH 8.0). […] The rate of cleavage of fluorogenic peptide substrates was determined by monitoring the fluorescence of released aminomethylcoumarin using a Victor 1420 Multilabel counter (Wallac) at an excitation wavelength of 395 nm and emission wavelength of 460 nm over a period of 60 min. […]

[4] = target: T2, erythrocyte-derived 20S proteasome, trypsin-like activity (Homo sapiens, UniProt P49720+Q99436); assay: 20S-Proteasome-Test (manual), trypsin-like substrate; type: biochemical
T2 construct: using erythrocyte-derived 20S proteasome; purchased Biomol International PW8720; host or cells: human erythrocytes
Experimental: as §2, §3

H15 (cervix carcinoma) = assay: MIC (visual), serial dilution, H15 cells; type: cell-based; conditions: minimal concentration of a serial dilution exhibiting a visual effect
From the text: as §1

[5] = target: T3, erythrocyte-derived 20S proteasome, chymotrypsin-like activity (Homo sapiens, UniProt P20618+P28074); assay: 20S-Proteasome-Test (manual), chymotrypsin-like substrate; type: biochemical
T3 construct: using erythrocyte-derived 20S proteasome; purchased Biomol International PW8720; host or cells: human erythrocytes
Experimental: as §2, §3

20S proteasome = system: T4, 20S proteasome; assay: Proteasome-assay, overall comparison in words (all three subunits); type: biochemical, human; conditions: compared with argyrin F
T4 construct: using erythrocyte-derived 20S proteasome; purchased Biomol International PW8720; host or cells: human erythrocytes
Experimental: as §2
Proteasome assays with purified 20S proteasome were performed as previously described (Lightcap et al., 2000) using erythrocyte-derived 20S proteasome (Biomol International,#LP PW8720) and fluorometric substrates Succ-LLVY-AMC, BZ-VGR-AMC and Z-Lle-AMC (Biomol International, LP PW9905). Proteasome extraction from cells and tumor sections was done as previously described (Crawford et al., 2006). For proteasome extraction from whole blood, frozen whole blood cell pellets were thawed and lysed in 2-3 pellet volumes cold lysis buffer (5 mM EDTA, pH 8.0). Lysates were spun down at 4° C. and the supernatant was transferred to a fresh tube. 5 μl was taken for the determination of protein concentration using a coomassie protein assay (Pierce, Rockford, Ill.). Proteasome assays using proteasome purified from cells or tissues were carried out in a 100 μL reaction volume containing 20 μg proteasome extract, 50 mmol/L EDTA and 60 μmol/L fluorogenic substrate (chymotrypsin-like(CT-L), trypsin-like(T-L) or caspase-like (C-L)) in ATP/DTT lysis buffer at 37° C. The assay buffer was supplemented with a final concentration of 0.05% SDS for the evalution of the chymotrypsin-like activity and caspase-like activity. The rate of cleavage of fluorogenic peptide substrates was determined by monitoring the fluorescence of released aminomethylcoumarin using a Victor 1420 Multilabel counter (Wallac) at an excitation wavelength of 395 nm and emission wavelength of 460 nm over a period of 60 min.

Compound | Mean of FSC-H (Log) H15 p27-GFP-clone [1] | MIC (visual) SW-480 (SW-480 (colon cancer)) | IC50 ([2]; Homo sapiens, SW480, half-maximal inhibition of proliferation, read-out: IC-50 SW-480) | rel. activ. in % after 20 min. ([3]; conc. in test 200 μmol/L) | rel. activ. in % after 20 min. ([4]; conc. in test 200 μmol/L) | MIC (visual) HIS (H15 (cervix carcinoma)) | rel. activ. in % after 20 min. ([5]; conc. in test 200 μmol/L) | inhibiting effect on the proteasome, compared in words (20S proteasome) | inhibiting effect on the proteasome, compared in words (20S proteasome; listed as Argyrin Ala alpha) | rel. activ. in % after 20 min. ([3]; conc. in test 100 μmol/L) | rel. activ. in % after 20 min. ([4]; conc. in test 100 μmol/L) | rel. activ. in % after 20 min. ([5]; conc. in test 100 μmol/L) | inhibiting effect on the proteasome, compared in words (20S proteasome; listed as argyrin Ala beta) | IC-50 SW-480 ([2]; half-maximal inhibition of proliferation)
C=C1NC(=O)[C@@H](C)NC(=O)CNC(=O)[C@H](Cc2c[nH]c3cccc(OC)c23)NC(=O)[C@H](Cc2c[nH]c3ccccc23)NC(=O)c2csc(n2)[C@@H](CO)NC(=O)CN(C)C1=O [Argyrin F] (cyclo([Dha][Sar][X1]W[Trp(4-OMe)]G[dA])) | 11.24 | 0.2 µg/mL (≈ 0.238 µM) | 0.05 µg/mL (≈ 0.0595 µM) | 17% | 32% | 0.5 µg/mL (≈ 0.595 µM) | 15% | – | – | – | – | – | – | –
C=C1NC(=O)[C@@H](C)NC(=O)[C@@H](C)NC(=O)[C@H](Cc2c[nH]c3cccc(OC)c23)NC(=O)[C@H](Cc2c[nH]c3ccccc23)NC(=O)c2csc(n2)[C@@H](CO)NC(=O)CN(C)C1=O [Argyrin ala alpha] (cyclo([Dha][Sar][X1]W[Trp(4-OMe)][dA][dA])) | – | – | – | – | – | – | – | higher activities than Argyrin F | slightly less active | 11% | 72% | 17% | – | –
C=C1NC(=O)[C@@H](C)NC(=O)[C@H](C)NC(=O)[C@H](Cc2c[nH]c3cccc(OC)c23)NC(=O)[C@H](Cc2c[nH]c3ccccc23)NC(=O)c2csc(n2)[C@@H](CO)NC(=O)CN(C)C1=O [Argyrin ala beta] (cyclo(A[dA][Dha][Sar][X1]W[Trp(4-OMe)])) | – | – | – | – | – | – | – | higher activities than Argyrin F | – | 7% | 26% | 8% | stronger inhibiting effect on the proteasome than argyrin F | –
Argyrin B | 7.60 | 12 µg/mL | – | – | – | 12 µg/mL | – | – | – | – | – | – | – | Ca. 0.05 μg/ml
